Experiments:
aged cells = test: Clonogenic assay (CFU-GM) of aged cells after miRNA mimic, siRNA or exosome treatment; type: cell-based, human; conditions: overexpression of candidate miRNAs in aged isochronic cultures, vs negative control RNA
Source text: Aged TNCs (10×10^6 cells per sample) were nucleofected with microRNA mimics (Qiagen), miRNA inhibitors (Qiagen), negative control siRNA (Qiagen), negative control miRNA inhibitor (Qiagen) or downstream target candidate siRNAs (Origene) using the Amaxa P3 Primary Cell 4D-Nucleofector X Kit (Lonza) on a 4D Nucleofector device (Lonza), according to manufacturer's specific protocol. Briefly, for nucleofection of CD34+ cells used in clonogenic assays, cells were nucleofected with 60 nmol total miRNA mimics, miRNA inhibitors or siRNA using the “human CD34+ cell” program. For nucleofection of T cells used in T cell activation and cell-mediated cytotoxicity assays, cells were nucleofected with 240 nmol total miRNA mimics, miRNA inhibitors or siRNA using the “human unstimulated T cell, high functionality” program.

K562 = test: Cell-mediated cytotoxicity assay, aged effector cells; type: cell-based; conditions: miRNA formulations in aged cells, vs control RNA
Procedure: Cell cytotoxicity was determined with the CFSE/7-AAD Cell Cytotoxicity Kit (Cayman Chemical) according to manufacturer's specified instructions. Briefly, the human chronic myelogenous leukemia cell line, K562, (ATCC # CCL-243) was used as target cells. 107 K562 cells were labeled for 15 min with CFSE dye, washed twice and diluted 100-fold for 30 min incubation at 37° C. Cells from 7-day isochronic or heterochronic cultures were used as effectors. Effector and target cells were added to 6-well plates at the following effector-to-target (E:T) ratios: 0:1, 6.25:1, 12.5:1 and 25:1, and cell mixtures incubated for 4 h at 37° C. Cells were harvested and counter-stained with 7-AAD. 50,000 events were acquired on the FACSCalibur flow cytometer, and data analyzed using BD CellQuest Pro™ software. Target cells incubated alone with 7-AAD served as control to calculate spontaneous lysis, while effector cells alone with 7-AAD served as control to detect dead effector cells. Percent lysis was calculated according the following formula: [(cells positive for both CFSE and 7-AAD/total CFSE-labeled cells)*100−spontaneous % lysis]. […]

huNSG mice = system: huNSG mice
Procedure: T cell activation was determined using the T Cell Activation/Expansion Kit (Miltenyi). Briefly, anti-biotin MACSiBead Particles were loaded with CD2, CD3, and CD28 antibodies. Cells from 7-day isochronic or heterochronic cultures, or MNCs isolated from huNSG mouse blood by Ficoll-Hypaque density gradient, were incubated with loaded anti-biotin MACSiBead Particles at a 1:2 bead to cell ratio for 72 h to activate T cells. Addition of unloaded MACSiBead Particles served as negative control. After 72 h, cells were fluorescently labeled using CD45-FITC, CD4-PE, CD25-PerCP-Cy5.5 and CD8-APC to determine T cell activation status by flow cytometry.
5-week old, female NOD/scid IL2Rγnull (NSG) mice were purchased from Jackson Labs and housed in an AALAC-accredited facility at Rutgers, N.J. Medical School (Newark, N.J.). The protocol was approved by the Institutional Animal Care and Use Committee, Rutgers School of Biomedical Health Sciences (Newark, N.J.). Mice were acclimated in the Rutgers barrier animal facility for 1 week prior to experimental use. 6-week old mice were subjected to 150 cGy whole body gamma irradiation using a Mark-I cesium irradiator unit. 5 hours post-irradiation, mice were injected i.v. with 5×10^5 human CD34+ cells isolated from aged or young study donor Leukopaks. Engraftment proceeded over 15-19 weeks, with peripheral blood chimerism monitored at 9 and 13 weeks post-transplant. % Chimerism was detected by co-labeling blood with anti-human CD45-APC (HI30) and anti-mouse CD45-FITC (30-F11) for monitoring by flow cytometry. Humanized NSG (huNSG) enrolled in the treatment arm of the transwell-based animal study were given a 2nd i.v. injection of 5×10^5 autologous aged cells from 7-day isochronic (non-restored) or heterochronic (restored) cultures that were CD3-depleted (Miltenyi) prior to transplant, or saline control. The miRNA-based animal study was performed as above, except that the treatment arm utilized autologous aged cells transfected with 60 nmol total of either miR-619 alone, miR-combo (miR-619, -1303, 4497) or control RNA. Transfections utilized the HiPerFect reagent (Qiagen), and cells were transfected for a total of 7 days prior to CD3 depletion and i.v. injection as above. Mice were sacrificed at 14-15 weeks post-transplant, and blood, BM and speen harvested for biochemical, phenotypic and functional analyses. Major organs were also harvested for histological assessment. Tissue embedding, processing and staining were performed by the Digital Imaging and Histology Core of Rutgers-New Jersey Medical School Cancer Center (Newark, N.J.). Histologic findings were confirmed on H&E slides by a board-certified veterinary pathologist.
Detection of senescence associated secretory factors (SASFs) in plasma of huNSG mice was performed using Custom C-Series Human Antibody Arrays (Ray Biotech). Arrays were labeled with antibodies to 68 different factors linked to cellular senescence. Briefly, blood from huNSG mice was pelleted for 10 min at 300 g and plasma supernatant collected in siliconized microfuge tubes for SASF determination. […] Background levels were calculated by incubating the arrays with plasma from non-humanized NSG mice and then subtracting the obtained values from each huNSG sample.
For the T Cell Cytokine Array (Ray Biotech), conditioned media was collected from cells isolated from huNSG peripheral blood that were stimulated as per the T cell activation assay (see above) after 72 h and stored in protein lo-bind tubes. […] For both the custom SASF and T cell cytokine arrays, densitometry was performed using the UN-SCAN-IT densitometry software (Silk Scientific). Hierarchical clustering and heat map generation were perfomed with Heatmapper software.
BM from huNSG were flushed with a 26-gauge needle and collected for subsequent purification of engrafted human cells with the Mouse Cell Depletion Kit (Miltenyi).

## miR-619: miRNA (miR-619-5p), GCUGGGAUUACAGGCAUGAGCC (chemistry not given here; listed as Homo sapiens)
Aged cells
  aged colony formation: significant effect
K562
  target lysis (cell-mediated cytotoxicity): significant increases
huNSG mice; blood plasma, 1.5-fold cutoff, vs control
  SASFs decreased (68 factors linked to the SASP): 51.4%
huNSG mice; blood plasma, vs control
  total SASF expression: significant decreases
huNSG mice; mice receiving aged cells treated with miRNA, 15 weeks after 2nd transplant
  mean overall survival: 89%
huNSG mice; normalized to control, compared to heterochronic treatment
  clonogenicity: more robust
huNSG mice; vs RNA control
  huCD3+ cells in blood: increased
  huCD4+ cells in blood: significantly increased
huNSG mice; vs control
  BM clonogenicity: significantly increased
  huCD4+/CD8+ ratio in blood: increased
  huCD8+ cells in blood: decreased
huNSG mice; vs control RNA
  human chimerism in BM or blood: No significant difference

Source: patent US10717981B2, “Therapeutic compositions and methods of making and using the same” (Advanced ReGen Medical Technologies, LLC, priority 2018, dated 2020)
